Experimental data reported in patent publication US11453679B2, “Methyl 2-methyl-5-oxo-1,4,5,7-tetradhydrofuro[3,4-b]pyridine-3-carboxylate compounds as Cav1.2 activators” (Novartis AG, priority 2020, dated 2022).
Read-outs that look alike come from different tables or passages of the source.

What was measured:
human Cav1.2 [1] = molecular target: T1, human Cav1.2 (Homo sapiens, UniProt Q13936)
Experimental: (§1) 24 hours prior an electrophysiology experiment, doxycycline (1 μg/ml) was added to the growth medium (Table 1), and 25 μM of verapamil was co-applied to prevent calcium influx triggered cell death. Cell confluency should reach 70%-80% right before the experiment.
(§2) To harvest cells (from a T175 cm^2 flask as an example), growth media were removed completely, and the cells were rinsed with 10 mL of D-PBS. D-PBS was aspirated, and 10 mL of Detachin (Genlantis) was added and the plate was placed in a 37° C. incubator for 10 minutes. Detached cells were placed into a 15 mL conical tube and spun at 1000 rpm for 2 minutes. Supernatant was removed, and cells were re-suspended in QPatch complete media (Table 2) to desired cell density of 1.5-3 million cells per QPatch run. Each experimental run uses 1.5 mL of cells.
(§3) The cells suspension was taken to the Sophion QPatch platform that uses whole-cell voltage clamp to measure barium currents conducted through Cav1.2 on single-hole QPlates. […] A dose-response assay protocol was used to determine the maximal fold change of peak inward current (Emax) and potency (EC50) of each compound. The protocol had eight liquid periods. The first liquid period was to stabilize current amplitude, which was monitored using repetitive 200-ms voltage pulses stepping from −80 mV to 0 mV. The second liquid period was to determine baseline current amplitude in the presence of vehicle control, using a single 20-ms voltage pulse stepping from −80 mV to 0 mV. The third through eighth liquid periods were used to ascertain a 6-dose response to compound treatments, also using single 20-ms voltage pulses stepping from −80 mV to 0 mV. The EC50 was generated using the following equation Iconcentration=Ibase+(Ifull−Ibase)*c^n/(XC50^n+c^n), where c is the concentration and n is the Hill coefficient constant. Ifull is the maximal current achievable, and Ibase is 0.

[2] = mouse, in vivo, ip
Experimental: (§4) Compound administration and brain tissue collection. Wild-type C57BL/6J male mice were obtained from Jackson laboratories (Bar Harbor, Me.). The acute, single-dose effects of Cav1.2 activators of the present disclosure were evaluated in male eight-week old mice (n=6 mice per compound). Each compound was dissolved in 10% PEG300, 10% Solutol, 10% Cremophore EL, and 70% Phosphate Buffered Saline and administered intraperitoneal (i.p.) at a concentration of 1 mg/kg up to 30 mg/kg depending on the compound. Animals were euthanized one hour after compound administration via exsanguination under deep anesthesia. Blood was collected in EDTA tubes for downstream analysis of drug levels. Brains were rapidly removed from the skull, and the cerebral cortex and cerebellum were regionally dissected. Cerebellar samples were snap frozen in liquid nitrogen to assess compound exposure.
(§5) Quantification of compound exposure. Cerebellar tissue samples were homogenized in 4 mL of 20% acetonitrile and 80% Phosphate buffered saline for every 1 g of tissue (5× dilution). Tissue was homogenized using either of the following three methods: hand held probe system, TissueLyser system with 5 mm steel bead at a frequency of 30 s^−1 for 4 min, or OMNI Bead Ruptor Elite homogenizer for 30 seconds to 1 minute depending on tissue type. Tissue samples were added to a 96-well plate (12.5 μL sample) and processed for quantification by mass spectrometry.

human Cav1.2 [3] = molecular target: T1, human Cav1.2; experiment: QPatch channel biophysics assay (current-voltage relationship, V1/2, tau of inactivation), Cav1.2-HEK293(AUX) cell line; format: cell-based; design: expressed in transfected cells; host or cells: Flp-In 293 T-Rex (HEK293), clone 2-19B, stably transfected with pCMV6-entry-CACNA1C and pcDNA5H/FRT-TO-CACNA2D2-FCS-P2A-CACNB2; conditions: shift of half-way channel activation voltage (V1/2)
Experimental: Clonal isolation was achieved under Neomycin selection.
Each experimental run uses 1.5 mL of cells.
The protocol had eight liquid periods. […] The protocol had four liquid periods.

cFos mRNA = cFos mRNA induction in cortex of wild-type mice (quantitative PCR); format: in vivo, C57BL/6J male mice; conditions: one hour after administration
Experimental: Compound administration and brain tissue collection.
Quantification of cFos mRNA induction. Tissue homogenization was performed using TissueLyser system for 96 well plates (Qiagen). First, frozen cortical samples were thawed, removed from RNAlater, and placed into TissueLyser tubes along with Buffer RLT containing 0.5% Reagent DX and one 5 mm TissueLyser metal bead. The TissueLyser tubes were loaded into a TissueLyser II tissue homogenizer for 3 rounds of homogenization, with each round lasting 5 minutes at 30 Hz bead-beating frequency. Total RNA was purified from the homogenate using RNeasy 96 Plus kit (Qiagen), RNA concentration and A260/A280 ratio were quantified via the Nanodrop (ThermoFisher), and all samples were normalized to 100 ng/μl concentration. RNA was reverse transcribed into cDNA using the Superscript III First-strand synthesis SuperMix Kit (ThermoFisher). For each sample, 6 μl of RNA (600 ng total) was mixed with 1 μL of Oligo dT and 1 μL of annealing buffer and heated to 65° C. for 5 minutes. Next, 10 μL of 2× First-Strand Reaction Mix and 2 μL of the Enzyme mix were added to achieve a total reaction volume of 20 μL. The samples were heated to 50° C. for 50 minutes then 85° C. for 5 minutes to complete cDNA synthesis.
Quantitative PCR was performed on the cDNA samples using Quantitect Multiplex RT-PCR kit (Qiagen) in a 384-well assay format. Each PCR well contained 2 μL of cDNA (60 ng total), 10 μL of RT-PCR mastermix, 1 μL of cFos FAM Taqman probe (Mm00487425_m1 (FAM) #4351368), 1 μL of GAPDH VIC Taqman probe (Mm99999915-g1 (VIC) #4448486), 0.2 μL of Multiplex RT mix and 5.8 μl of RNase-free water. On the ViiA7 Real-Time PCR system (ThermoFisher), the samples were heated to 95° C. for 15 minutes then cycled between 94° C. for 45 seconds and 60° C. for 45 seconds for 45 cycles. cFos Ct values were exported, normalized to GAPDH Ct values, and converted to relative fold change in expression using the delta-delta Ct relative quantification method. cFos fold changes between compound treatments and vehicle were analyzed by one-way ANOVA, followed by Tukey's post-hoc comparisons.

human Cav1.2 [4] = molecular target: T1, human Cav1.2; experiment: Sophion QPatch whole-cell voltage clamp dose-response assay, Cav1.2-HEK293(AUX) cell line (barium currents); conditions: for QPatch Emax: maximal fold change of peak inward current; for EC50: QPatch EC50, 6-point dose response, 20-ms pulses from −80 mV to 0 mV, n = 1 unless marked (* n = 2, # n = 3)
Experimental: as §1, §2, §3

[5] = Compound exposure in wild-type mice (cerebellum and blood, mass spectrometry); conditions: male, C57BL/6J, mouse, brain (cerebellum) and whole blood, ip
Experimental: as §4, §5

T1 sequence (Q13936 whole entry): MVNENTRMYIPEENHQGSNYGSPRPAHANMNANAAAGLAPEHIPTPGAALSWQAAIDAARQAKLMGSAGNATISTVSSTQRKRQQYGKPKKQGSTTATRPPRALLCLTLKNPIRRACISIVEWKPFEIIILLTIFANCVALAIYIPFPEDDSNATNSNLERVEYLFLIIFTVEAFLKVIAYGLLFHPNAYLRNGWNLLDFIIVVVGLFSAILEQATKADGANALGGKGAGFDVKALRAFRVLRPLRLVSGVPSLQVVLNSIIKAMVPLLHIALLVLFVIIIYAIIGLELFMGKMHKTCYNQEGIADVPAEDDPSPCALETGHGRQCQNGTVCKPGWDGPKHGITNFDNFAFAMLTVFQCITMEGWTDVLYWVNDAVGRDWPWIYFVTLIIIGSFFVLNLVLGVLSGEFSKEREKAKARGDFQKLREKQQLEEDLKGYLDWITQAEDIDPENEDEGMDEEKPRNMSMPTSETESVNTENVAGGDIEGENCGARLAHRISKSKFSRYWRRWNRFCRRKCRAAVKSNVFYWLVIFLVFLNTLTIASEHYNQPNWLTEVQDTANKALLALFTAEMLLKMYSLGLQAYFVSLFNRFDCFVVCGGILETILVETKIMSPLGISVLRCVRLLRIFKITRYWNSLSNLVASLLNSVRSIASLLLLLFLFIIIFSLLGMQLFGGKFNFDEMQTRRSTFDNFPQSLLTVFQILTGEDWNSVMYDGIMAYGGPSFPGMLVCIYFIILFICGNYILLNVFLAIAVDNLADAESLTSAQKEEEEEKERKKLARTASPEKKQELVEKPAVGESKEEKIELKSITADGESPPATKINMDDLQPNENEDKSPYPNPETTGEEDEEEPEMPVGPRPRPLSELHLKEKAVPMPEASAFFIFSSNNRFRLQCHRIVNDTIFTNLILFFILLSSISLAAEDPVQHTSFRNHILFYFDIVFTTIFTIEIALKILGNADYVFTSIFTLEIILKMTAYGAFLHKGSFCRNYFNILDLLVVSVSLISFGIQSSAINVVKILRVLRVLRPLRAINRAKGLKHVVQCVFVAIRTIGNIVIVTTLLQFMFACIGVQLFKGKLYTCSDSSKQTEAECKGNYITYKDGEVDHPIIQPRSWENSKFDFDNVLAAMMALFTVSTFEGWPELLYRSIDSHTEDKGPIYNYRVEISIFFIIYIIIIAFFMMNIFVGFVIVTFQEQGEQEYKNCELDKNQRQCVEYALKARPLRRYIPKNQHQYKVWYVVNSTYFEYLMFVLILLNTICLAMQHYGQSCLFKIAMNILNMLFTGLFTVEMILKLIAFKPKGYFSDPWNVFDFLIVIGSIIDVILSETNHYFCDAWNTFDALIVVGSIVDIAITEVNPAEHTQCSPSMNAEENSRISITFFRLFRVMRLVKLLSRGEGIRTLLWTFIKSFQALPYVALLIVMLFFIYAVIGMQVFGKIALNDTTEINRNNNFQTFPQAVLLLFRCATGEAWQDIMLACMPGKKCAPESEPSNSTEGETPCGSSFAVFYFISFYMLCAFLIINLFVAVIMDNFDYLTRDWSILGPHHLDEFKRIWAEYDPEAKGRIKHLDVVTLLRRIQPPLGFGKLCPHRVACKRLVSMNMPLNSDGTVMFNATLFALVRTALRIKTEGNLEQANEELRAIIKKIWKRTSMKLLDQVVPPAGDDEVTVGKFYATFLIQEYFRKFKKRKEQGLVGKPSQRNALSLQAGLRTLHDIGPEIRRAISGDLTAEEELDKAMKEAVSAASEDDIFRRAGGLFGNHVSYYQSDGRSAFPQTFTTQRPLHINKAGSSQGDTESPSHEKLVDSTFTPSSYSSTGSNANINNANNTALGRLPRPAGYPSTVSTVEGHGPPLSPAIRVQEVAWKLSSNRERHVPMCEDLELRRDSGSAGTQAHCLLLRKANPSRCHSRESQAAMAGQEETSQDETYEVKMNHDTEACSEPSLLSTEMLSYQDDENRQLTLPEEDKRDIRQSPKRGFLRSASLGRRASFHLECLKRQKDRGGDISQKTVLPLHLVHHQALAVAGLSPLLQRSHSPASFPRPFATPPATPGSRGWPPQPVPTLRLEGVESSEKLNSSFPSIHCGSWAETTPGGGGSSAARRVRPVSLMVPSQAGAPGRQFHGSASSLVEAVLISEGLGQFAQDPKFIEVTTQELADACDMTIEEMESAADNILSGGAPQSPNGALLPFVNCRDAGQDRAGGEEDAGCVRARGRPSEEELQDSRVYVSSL
T1 sequence (Q9NY47 19-1001 partner limits assumed): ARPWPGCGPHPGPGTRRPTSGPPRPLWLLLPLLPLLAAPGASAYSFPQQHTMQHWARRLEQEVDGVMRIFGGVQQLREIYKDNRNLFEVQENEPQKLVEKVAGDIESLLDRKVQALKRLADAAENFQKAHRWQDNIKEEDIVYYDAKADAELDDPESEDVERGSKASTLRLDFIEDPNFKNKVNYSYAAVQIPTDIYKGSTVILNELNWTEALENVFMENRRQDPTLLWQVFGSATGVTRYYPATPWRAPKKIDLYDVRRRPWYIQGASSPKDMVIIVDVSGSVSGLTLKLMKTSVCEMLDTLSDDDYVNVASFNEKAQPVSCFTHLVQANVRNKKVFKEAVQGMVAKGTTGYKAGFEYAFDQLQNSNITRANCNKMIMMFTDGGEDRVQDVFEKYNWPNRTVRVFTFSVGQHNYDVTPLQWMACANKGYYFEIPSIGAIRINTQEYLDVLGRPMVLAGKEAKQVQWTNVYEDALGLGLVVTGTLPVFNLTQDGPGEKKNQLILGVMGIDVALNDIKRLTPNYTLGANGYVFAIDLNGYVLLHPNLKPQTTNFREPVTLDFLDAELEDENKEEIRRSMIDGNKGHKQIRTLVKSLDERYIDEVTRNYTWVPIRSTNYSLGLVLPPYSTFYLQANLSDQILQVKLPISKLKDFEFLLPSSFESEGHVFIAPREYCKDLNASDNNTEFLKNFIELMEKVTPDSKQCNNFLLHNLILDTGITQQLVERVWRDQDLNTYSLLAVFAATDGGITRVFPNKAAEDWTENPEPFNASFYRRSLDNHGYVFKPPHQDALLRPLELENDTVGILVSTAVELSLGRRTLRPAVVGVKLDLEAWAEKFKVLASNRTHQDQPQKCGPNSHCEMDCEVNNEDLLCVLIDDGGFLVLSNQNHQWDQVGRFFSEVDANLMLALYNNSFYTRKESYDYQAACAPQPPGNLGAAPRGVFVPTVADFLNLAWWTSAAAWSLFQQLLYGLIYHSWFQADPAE
T1 sequence (Q9NY47 1002-1150 partner limits assumed): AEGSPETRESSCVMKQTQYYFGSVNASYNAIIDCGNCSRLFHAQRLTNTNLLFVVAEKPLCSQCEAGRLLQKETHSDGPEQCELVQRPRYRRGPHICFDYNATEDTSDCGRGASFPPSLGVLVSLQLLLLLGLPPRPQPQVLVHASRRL
T1 sequence (Q08289 whole entry partner): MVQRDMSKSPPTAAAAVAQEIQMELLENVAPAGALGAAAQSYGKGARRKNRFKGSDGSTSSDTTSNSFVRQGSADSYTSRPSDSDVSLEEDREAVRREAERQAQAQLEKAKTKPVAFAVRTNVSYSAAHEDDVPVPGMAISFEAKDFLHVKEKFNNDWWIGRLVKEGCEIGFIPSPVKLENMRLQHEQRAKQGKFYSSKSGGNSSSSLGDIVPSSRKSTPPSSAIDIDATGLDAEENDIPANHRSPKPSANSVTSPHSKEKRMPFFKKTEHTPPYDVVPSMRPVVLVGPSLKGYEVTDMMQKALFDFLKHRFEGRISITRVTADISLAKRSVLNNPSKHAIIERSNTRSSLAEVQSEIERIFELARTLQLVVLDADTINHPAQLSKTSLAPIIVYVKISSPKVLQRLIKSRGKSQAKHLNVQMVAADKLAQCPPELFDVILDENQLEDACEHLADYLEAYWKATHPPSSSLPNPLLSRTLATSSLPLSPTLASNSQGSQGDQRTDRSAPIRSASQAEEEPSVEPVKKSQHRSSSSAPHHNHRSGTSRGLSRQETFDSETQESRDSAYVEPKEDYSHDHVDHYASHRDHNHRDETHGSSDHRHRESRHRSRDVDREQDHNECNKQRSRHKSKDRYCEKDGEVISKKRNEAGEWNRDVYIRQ

Brain:blood ratio [2] | Kp at 1 h [5] | Structure (SMILES) | EC50 (human Cav1.2 [1]) | Biophysics voltage shift (human Cav1.2 [3]) | % ↑cFOS mRNA cortex (3 mg/kg ip) (cFos mRNA) | % ↑cFOS mRNA cortex (10 mg/kg ip) (cFos mRNA; 10 mg/kg ip) | QPatch Emax (human Cav1.2 [4]) | EC50 (human Cav1.2 [4])
3.4 | – | COC(=O)C1=C(C)NC2=C(C(=O)OC2)[C@H]1c1cccc(F)c1C1CC1(F)F (single isomer, unassigned) [Example 2, Methyl (S)-4-(2-((S or R)-2.2-difluorocyclopropyl)-3-fluorophenyl)-2-methyl-5-oxo-1,4,5,7-tetrahydrofuro[3,4-b]pyridine-3-carboxylate] | 0.17 µM | −1.9 mV | 23% | 203% | 1.6 | –
– | 2.9 | C=C(c1c(F)cc(F)cc1[C@H]1C(C(=O)OC)=C(C)NC2=C1C(=O)OC2)C(F)(F)F (single isomer, unassigned) [Example 19] | – | −1.8 mV | 138% | – | 1.7 | 0.012 µM
– | 0.6 | C=C(c1c(F)cccc1[C@H]1C(C(=O)OC)=C(C)NC2=C1C(=O)OC2)C(F)(F)F [Example 16, (S)-methyl 4-(3-fluoro-2-(3,3,3-trifluoroprop-1-en-2-yl)phenyl)-2-methyl-5-oxo-1,4,5,7-tetrahydrofuro[3,4-b]pyridine-3-carboxylate] | – | −3.3 mV | 121% | – | 1.5 | 0.004 µM
